US8193225B2, “Isoxazole amides, derivatives and methods of chemical induction of neurogenesis” (priority 2006, dated 2012)
Entries after “also recorded” stand apart in the source; their conditions may differ.

Experiments:
[1] = system: MEF2 reporter gene (3XMRE-luc); experiment: MEF2 reporter gene (3XMRE-luc) assay in HCN cells; type: cell-based, rat; details: HCN cells/NPCs, versus vehicle
[2] = system: NMDA receptor 1-(NR1) luciferase; experiment: NMDA receptor 1 (NR1)-luciferase reporter in BTSCs; type: cell-based, human; details: after 24 hours, compared to vehicle
Protocol: (§1) CD133+ glioblastoma brain tumor stem cells (BTSCs) from an explanted human tumor specimen were treated with 20 μM Isx-9 (FIG. 9C) or vol/vol DMSO (vehicle) control (FIG. 9B).

HCN cells [3] = experiment: RT-PCR and protein blotting of gene expression in HCN cells; type: cell-based, rat
[4] = system: RFP-labeled human CD133(+) BTSCs; experiment: transplantation of pre-treated RFP-labeled BTSCs into striatum of NOD/scid mice; type: in vivo
Protocol: BTSC transplantation was performed by stereotactic surgery into the left striatum (coordinates from Bregma AP −0 mm, ML +2.5 mm, DV −3.5 mm) with a 33-gauge Hamilton syringe at a flow rate of 30,000 cells/10 minutes.

[5] = system: human CD133(+) brain tumor stem cells (BTSCs); experiment: RT-PCR and protein blotting of gene expression in BTSCs; type: cell-based
Text: FIGS. 9A-H—Isoxazoles specifically target the CD133(+) glioblastoma cancer stem cell to adopt a neuronal fate program. […] (FIG. 9B) BTSCs cultured with DMSO (vehicle) (1% vol./vol.). (FIG. 9D) Isx-9-treated BTSCs stained with neuronal markers Tuj1 (red) and Map2ab (green), Dapi-stained nuclei is blue. Scale bar=25 μm. […] (FIGS. 9G and 9H) RT-PCR and protein blotting analysis of gene expression in Isx-9-treated BTSCs. […] GAPDH is used as a normalization control.
This activity remained following addition of FGF/EGF without additional Isx-9 addition.

[6] = system: human CD133(+) brain tumor stem cells (BTSCs); experiment: differentiation of CD133+ brain tumor stem cells (BTSCs); type: cell-based; details: 20 μM, within 4 days
Protocol: as §1

neuroD-luciferase = neuroD-luciferase reporter gene assay in HCN cells; type: cell-based, rat; details: HCN cells
HCN cells [7] = experiment: in vitro neuronal differentiation of HCN cells (morphology, Tuj1 staining); type: cell-based, rat

O=C(NC1CC1)c1cc(-c2cccs2)on1 [Isx-9, N-cyclopropyl-5-(thiophen-2-yl)isoxazole-3-carboxamide]
activation of MEF2 reporter gene (3XMRE-luc) / MEF2 promoter [1]: Dose-dependent activation | activation of NR1-luciferase in BTSCs [2]: Dose-dependent activation | MEF2 mRNA levels (HCN cells [3]; 2- and 4-days, compared to vehicle): up-regulated | expression of SOX2 (HCN cells [3]; HCN cells): decreased expression | neuronal protein expression (protein blotting) (HCN cells [3]; HCN cells/NPCs): increased Tuj1 protein | MEF2A and MEF2C protein levels (HCN cells [3]; protein blotting time-course, up to 64 hours): unchanged | tumor-initiating ability of BTSCs ([4]; 7-day exposure in vitro (20 μM) before transplantation): dramatically reduces tumor-initiating ability | number of RFP-labeled BTSCs in the striatum ([4]; after 1 month): significant reduced the number of RFP-labeled BTSCs in the striatum | CD133 expression in BTSCs [5]: downregulated | HDAC-4 and -5 protein in BTSCs [5]: remain relatively unchanged | NRSF expression in BTSCs [5]: downregulated | NeuroD expression in BTSCs ([5]; 2 days): Up-regulation of NeuroD | overall levels of neuronal proteins (βTujIII, GluR2) in BTSCs ([5]; versus control): do not significantly differ | neuronal differentiation of BTSCs [6]: triggers a pro neuronal-differentiation effect; also recorded: leads to more differentiated (adherent and phase-dark with neuronal-like processes) cells | increase in neuroD luciferase reporter (neuroD-luciferase): ≥ 8 fold | neuronal differentiation of HCN cells/NPCs (HCN cells [7]; 20 μM, 4 d cultures): promotes robust neuronal differentiation | Tuj1+ differentiation (HCN cells [7]; HCN cells, by 4 d): > 50%
